In article PMC5785958, “New role of phenothiazine derivatives as peripherally acting CB1 receptor antagonizing anti-obesity agents” (Scientific Reports, 2018):

Columns and labels:
[1] = PAMPA-BBB in vitro permeability assay; assay type: in vitro ADME, porcine; set-up: key to Prediction (penetration in CNS): CNS- indicates low passive CNS permeation; settings: for Prediction (penetration in CNS): from PAMPA-BBB Pe, Pe less than 3.8 × 10^−6 cm s^−1 = low BBB permeation; for Papp at 120 min, 100 µg/ml: pig, PAMPA-BBB, porcine brain lipid, PBS/ethanol (70:30), 25 °C, mean ± SEM of three experiments, read-out: Pe
Protocol: As discussed above, BBB permeation of the available CB1 receptor antagonists limits their therapeutic utility. A successful CB1 receptor antagonist to be used as anti-obesity agent must be devoid of BBB permeability. […] In this study, the ability of the test compounds to cross the BBB was determined by the well established in vitro model PAMPA-BBB assay. This simple and rapid model has the advantage to predict passive BBB permeation with high accuracy[57],[58]. The in vitro permeability (Pe) of the test compounds through the lipid extract of porcine brain was determined in PBS/ethanol (70:30).
To assess the in vivo brain permeability potential of the test compounds, PAMPA assay for BBB was performed as reported by Di. et al.[57]. The donor microplate (polyvinylidene fluoride (PVDF) membrane, diameter 25 mm, pore size 0.45 µm Millipore) and the acceptor microplate were used for the experiment. The acceptor microplate was filled with 200 µl phosphate buffer saline (PBS) and ethanol in the ratio of 70:30 whereas the donor microplate filter surface was impregnated with porcine brain lipid (Avanti Polar Lipids) in dodecane (Sigma) (4 µl of 20 mg/ml). 200 µl of the test compound (100 µg/ml in PBS/ethanol) was added to the donor well. A sandwich was formed by placing the donor plate carefully on the acceptor plate, and the plates were kept undisturbed for 120 min at 25 °C. The donor plate was carefully detached after the incubation period and concentration of the test compound in the acceptor wells was determined using UV spectroscopy. Each sample was analyzed in four wells at five different wavelengths, and at least in three independent runs. Assay validation was performed by using nine commercial quality standard drugs of known BBB permeability[75] in which the reported permeability values of the standards were compared with their experimental permeability values, which gave a linear relationship, Pe(exp.) = 1.171Pe(bibl.) + 1.489 (R^2 = 0.983)[57],[58].

[2] = test system: Wistar rats; assay: Acute hypophagic response in 24 h food-deprived rats; assay type: in vivo, rat; settings: for effect on food intake (in words): 2 h; for food intake (control = 100%): 10 mg/kg
Protocol: As a preliminary screening, the synthesized compounds were evaluated for acute hypophagia in rats and the results are summarized in Fig. 5. Twenty four hour food deprived Wistar rats were given weighed amounts of food pellets after administration of the test compounds. Quantum of food consumed by the control group of animals was considered as 100%.
Male Wistar rats weighing 200–250 g were used in the present study to assess the acute hypophagic response. Animals were housed individually in a plexi-glass cage in a temperature and humidity controlled room with a 12 h light/dark cycle. Standard chow pellets and water were made available ad libitum. Animals were handled daily for a week before performing the actual experiments. The animal study protocol was approved by the Institutional Animal Ethics Committee (IAEC) of Faculty of Pharmacy, The Maharaja Sayajirao University of Baroda (Approval no. MSU/IAEC/2014-15/1401). The experiments were conducted in accordance to the guidelines of CPCSEA (Committee for the Purpose of Control and Supervision of Experiments on Animals), Ministry of Environment & Forests, Govt. of India. We tried our best to reduce the number of animals and their suffering.
The acute effect of the synthesized test compounds on feeding behavior was assessed in 24 h food-deprived animals. Before performing the experiments, the bedding material was removed from the cage. The animals were deprived of feed for 24 h with free access to water. The fasted animals were administered with the test compounds (10 mg/kg, p.o.). After 30 min of administration, weighed amounts of food pellets were served to the animals. Amount of food pellets and food spillage remaining after 2 h were weighed to find out the amount of food consumed by the animals.

[3] = target: T1, CB1 receptor (Rattus norvegicus, UniProt P20272); assay: In vivo CB1 receptor antagonistic activity against WIN-55212-2 hyperphagia; settings: 24 h fasted rats, test compound 10 mg/kg p.o., WIN-55212-2 2 mg/kg i.p.
T1 construct: from tissue; host or cells: whole living animal (male Wistar rat); receptor endogenous in central and peripheral tissues
Protocol: Here also, the quantity of feed consumed by the control group animals was taken as 100%.
In another set of experiments, in vivo CB1 receptor antagonistic activity of the test compounds was assessed.

[4] = set-up: method as in PMID 20664173; settings: cited from earlier work
[5] = test system: CB1R; set-up: method as in PMID 20652930; settings: read-out: CB1R antagonist activity EC50; cited from earlier work
[6] = 24 h fasted male Wistar rats, 10 mg/kg p.o.
[7] = 24 h fasted male Wistar rats, 10 mg/kg p.o., food served after 30 min, intake over 2 h

T1 sequence (P20272 whole entry): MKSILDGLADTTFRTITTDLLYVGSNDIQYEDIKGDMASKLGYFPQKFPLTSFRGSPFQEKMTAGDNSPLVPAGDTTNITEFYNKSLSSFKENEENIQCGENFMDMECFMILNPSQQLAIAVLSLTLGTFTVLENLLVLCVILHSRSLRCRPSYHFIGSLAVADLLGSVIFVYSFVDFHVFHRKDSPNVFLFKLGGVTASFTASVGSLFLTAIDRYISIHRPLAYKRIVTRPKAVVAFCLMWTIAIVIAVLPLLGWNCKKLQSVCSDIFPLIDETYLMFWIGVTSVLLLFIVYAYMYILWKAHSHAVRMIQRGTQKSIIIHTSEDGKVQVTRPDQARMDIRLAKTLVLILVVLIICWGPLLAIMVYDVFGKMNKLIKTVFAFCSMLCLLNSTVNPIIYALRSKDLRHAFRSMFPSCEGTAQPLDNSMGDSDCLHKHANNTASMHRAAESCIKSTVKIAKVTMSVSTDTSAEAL

CCOC(=O)c1cnc(SCC(=O)N2c3ccccc3Sc3ccc(C(F)(F)F)cc32)nc1N [Compound 25, Ethyl 4-amino-2-(2-(2-trifluoromethyl-10H-phenothiazin-10-yl)-2-oxoethylthio)-pyrimidine-5-carboxylate]
Prediction (penetration in CNS) [1]: CNS-
Papp at 120 min, 100 µg/ml [1]: 2.72 ± 0.19 ×10⁻⁶ cm/s
effect on food intake (in words) [2, 6]: significant hypophagic activity
food intake (control = 100%) [2, 7]: 19–43%
food intake (control = 100%) ([2]; po): 37%
effect on hyperphagic effect of WIN-55212-2 (in words) [3]: suppressed the hyperphagic effect of WIN-55212-2
melting point: 148 to 151 °C

Cc1c(C(=O)NN2CCS(=O)(=O)CC2)nn(-c2ccc(Cl)cc2Cl)c1-c1ccc(C#CCCC#N)cc1 [AM-6545]
brain penetration (in words) [4]: limited brain penetration

CCc1c(C(=O)NN2CCCCC2)nn(-c2ccc(Cl)cc2Cl)c1-c1ccc(C#Cc2ccc(C(F)(F)F)cc2)s1 [TM38837]
EC50 [5]: 8.5 nM

Nn1c(SCC(=O)N2c3ccccc3Sc3ccc(Cl)cc32)nnc1-c1ccncc1 [Compound 34, 2-(4-Amino-5-(4-pyridyl)-4H-1,2,4-triazol-3-ylthio)-1-(2-chloro-10H-phenothiazin-10-yl)ethanone]
Prediction (penetration in CNS) [1]: CNS-
Papp at 120 min, 100 µg/ml [1]: 2.09 ± 0.82 ×10⁻⁶ cm/s
effect on food intake (in words) [2, 6]: significant hypophagic activity
effect on hyperphagic effect of WIN-55212-2 (in words) [3]: suppressed the hyperphagic effect of WIN-55212-2
melting point: 225 to 227 °C

COc1ccc2c(c1)N(C(=O)CSc1ncc(C#N)c(N)n1)c1ccccc1S2 [Compound 23, 4-Amino-2-(2-(2-methoxy-10H-phenothiazin-10-yl)-2-oxoethylthio)pyrimidine-5-carbonitrile]
Prediction (penetration in CNS) [1]: CNS-
Papp at 120 min, 100 µg/ml [1]: 3.08 ± 0.16 ×10⁻⁶ cm/s
effect on food intake (in words) [2, 6]: significant hypophagic activity
food intake (control = 100%) [2, 7]: 19–43%
food intake (control = 100%) ([2]; po): 19%
effect on hyperphagic effect of WIN-55212-2 (in words) [3]: suppressed the hyperphagic effect of WIN-55212-2
melting point: 215 to 217 °C

CCOC(=O)c1cnc(SCC(=O)N2c3ccccc3Sc3ccc(OC)cc32)nc1N [Compound 27, Ethyl 4-amino-2-(2-(2-methoxy-10H-phenothiazin-10-yl)-2-oxoethylthio)pyrimidine-5-carboxylate]
Prediction (penetration in CNS) [1]: CNS-
Papp at 120 min, 100 µg/ml [1]: 2.8 ± 0.58 ×10⁻⁶ cm/s
effect on food intake (in words) [2, 6]: significant hypophagic activity
food intake (control = 100%) [2, 7]: 19–43%
food intake (control = 100%) ([2]; po): 19%
effect on hyperphagic effect of WIN-55212-2 (in words) [3]: suppressed the hyperphagic effect of WIN-55212-2
melting point: 104 to 106 °C
